Data published in US9359308B2, “Pyrazine kinase inhibitors” (Portola Pharmaceuticals, Inc., priority 2011, dated 2016).

Target: T1, full length active recombinant SYK enzyme (Homo sapiens, UniProt P43405)
T1 construct: full length active recombinant SYK enzyme (Millipore, Calif.); purchased Millipore
Test: Inhibition of Syk tyrosine phosphorylation activity (LANCE TR-FRET kinase assay)
Type: biochemical
Conditions: activity in the Syk assays, class symbols
Excerpt: The in vitro and in vivo human Syk activities of the inventive compounds can be determined by various procedures known in the art, such as a test for their ability to inhibit the activity of human plasma Syk. […] The IC50 value is the concentration (in nM) of the compound required to provide 50% inhibition of human Syk proteolytic activity.
An in vitro assay for detecting and measuring inhibition activity against Syk is as follows:
Inhibition of Syk Tyrosine Phosphorylation Activity
Potency of candidate molecules for inhibiting Syk tyrosine phosphorylation activity is assessed by measuring the ability of a test compound to inhibit Syk-mediated tyrosine phosphorylation of a Syk-specific substrate.
SYK tyrosine phosphorylation activity is measured using the LANCE™ Technology developed by Perkin Elmer Life and Analytical Sciences (Boston, Mass.). LANCE™ refers to homogeneous time resolved fluorometry applications using techniques such as time-resolved fluorescence resonance energy transfer assay (TR-FRET) (see generally for procedures in Perkin Elmer Application Note-How to Optimize a Tyrosine Kinase Assay Using Time Resolved Fluorescence-Based LANCE Detection, wwww.perkinelmer.com/lifesciences). The assay principle involves detection of a phosphorylated substrate using energy transfer from a phosphospecific europium-labeled antibody to streptavidin-allophycocyanin as an acceptor.
To test the ability of candidate molecules to inhibit SYK tyrosine phosphorylation activity, molecules are reconstituted in 30% DMSO and serially diluted 1:3 with the final dilution containing DMSO in the absence of the candidate molecule. The final DMSO concentration in the assay is 3%. Kinase assays are performed as a two part reaction. The first reaction is a kinase reaction and which comprises of a candidate molecule, full length active recombinant SYK enzyme (Millipore, Calif.) and biotin-labeled SYK-specific substrate biotin-DEEDYESP-OH. The second reaction involves termination of the kinase reaction and the simultaneous addition of the detection reagents-europium-labeled anti-phosphotyrosine reagent (Eu-W1024-PY100, Perkin Elmer, Boston, Mass.) and Streptavidin-Allophycocyanin detection reagent (SA-APC, Prozyme, CA). The kinase reaction is performed in a black U-bottom 96-well microtitre plate. The final reaction volume is 50 μL and contains a final concentration of 1 nM active SYK enzyme, 550 nM SYK-substrate, and 100 μM ATP diluted in a buffer containing 50 mM Tris pH 7.5, 5 mM MgCl2, and 1 mM DTT. The reaction is allowed to proceed for 1 hour at room temperature. The quench buffer contains 100 mM Tris pH 7.5, 300 mM NaCl2, 20 mM EDTA, 0.02% Brij35, and 0.5% BSA. The detection reagents are added to the reaction mixture at the following dilutions-1:500 for Eu-W1024-PY100 and 1:250 for SA-APC. The kinase reaction is terminated by the addition of 50 μL quench buffer containing the detection reagents. The detection is allowed to proceed for 1 hr at room temperature. Detection of the phosphorlated substrate in the absence and presence of inhibitors is measured in the TR-FRET instrument, Analyst HT (Molecular Probes, Sunnyvale, Calif.) and the condition for measurements are set up using CriterionHost Release 2.0 (Molecular Probes, Sunnyvale, Calif.). The settings used are a follows: excitation 360 nm, emission 665-7.5 nm, beam splitter 350 nm 50/50, flash 100 pulses, delay 60 us, integration 400 us, z-height 2 mm. Inhibition of SYK-tyrosine kinase activity is calculated as the maximum response observed in the presence of inhibitor, compared to that in the absence of inhibitor. IC50s were derived by non-linear regression analysis.

SMILES: COC[C@@H](Nc1cnc(C(N)=O)c(Nc2cnc3cccnc3c2)n1)C(N)=O [Example 410, (R)-3-(1,5-naphthyridin-3-ylamino)-5-(1-amino-3-methoxy-1-oxopropan-2-ylamino)pyrazine-2-carboxamide]
- IC50: 10 to 100 nM

SMILES: NC(=O)c1ncc(Nc2cccc(-n3nccn3)c2)nc1N[C@@H]1CCCC[C@@H]1N [Example 96, 5-(3-(2H-1,2,3-triazol-2-yl)phenylamino)-3-((1R,2S)-2-aminocyclohexylamino)pyrazine-2-carboxamide]
- IC50: 10 to 100 nM

SMILES: NC(=O)c1ncc(N[C@@H](C(N)=O)c2ccccc2)nc1Nc1cnc2cccnc2c1 [Example 411, (R)-3-(1,5-naphthyridin-3-ylamino)-5-(2-amino-2-oxo-1-phenylethylamino)pyrazine-2-carboxamide]
- IC50: 10 to 100 nM

SMILES: Cc1ccc(Nc2nc(N[C@@H](C(N)=O)C(C)C)cnc2C(N)=O)cc1 [Example 155, (R)-5-(1-amino-3-methyl-1-oxobutan-2-ylamino)-3-(p-tolylamino)pyrazine-2-carboxamide]
- IC50: 10 to 100 nM

SMILES: Cc1cccc(Nc2nc(N[C@@H]3CCCC[C@@H]3N)cnc2C(N)=O)c1 [Example 61, 5-((1R,2S)-2-aminocyclohexylamino)-3-(m-tolylamino)pyrazine-2-carboxamide]
- IC50: 100 to 1000 nM

SMILES: CC(C)[C@@H](Nc1cnc(C(N)=O)c(Nc2cc(F)c3ncccc3c2)n1)C(N)=O [Example 206, (R)-5-(1-amino-3-methyl-1-oxobutan-2-ylamino)-3-(8-fluoroquinolin-6-ylamino)pyrazine-2-carboxamide]
- IC50: 1 to 10 nM

SMILES: COc1ccc(C(=O)N(C)C)cc1Nc1nc(N[C@@H]2CCCC[C@@H]2N)cnc1C(N)=O [Example 290, 5-((1R,2S)-2-aminocyclohexylamino)-3-(5-(dimethylcarbamoyl)-2-methoxyphenylamino)pyrazine-2-carboxamide]
- IC50: 100 to 1000 nM

SMILES: NC(=O)c1ncc(N[C@@H]2CCCC[C@@H]2N)nc1Nc1ccc(-n2cccn2)cc1 [Example 62, 3-(4-(1H-pyrazol-1-yl)phenylamino)-5-((1R,2S)-2-aminocyclohexylamino)pyrazine-2-carboxamide]
- IC50: 100 to 1000 nM

SMILES: CC[C@@H](Nc1cnc(C(N)=O)c(Nc2ccnc(C(F)(F)F)c2)n1)C(N)=O [Example 349, (R)-5-(1-amino-1-oxobutan-2-ylamino)-3-(2-(trifluoromethyl)pyridin-4-ylamino)pyrazine-2-carboxamide]
- IC50: 10 to 100 nM

SMILES: NC(=O)c1ncc(N[C@@H]2CCCC[C@@H]2N)nc1Nc1cc(-n2ccnn2)cc(-n2nccn2)c1 [Example 429, 3-((3-(1H-1,2,3-triazol-1-yl)-5-(2H-1,2,3-triazol-2-yl)phenyl)amino)-5-(((1R,2S)-2-aminocyclohexyl)amino)pyrazine-2-carboxamide]
- IC50: 1 to 10 nM

SMILES: COc1ncc(Nc2nc(N[C@@H]3CCCC[C@@H]3N)cnc2C(N)=O)cc1C [Example 306, 5-((1R,2S)-2-aminocyclohexylamino)-3-(6-methoxy-5-methylpyridin-3-ylamino)pyrazine-2-carboxamide]
- IC50: 1 to 10 nM

SMILES: CC[C@@H](Nc1cnc(C(N)=O)c(Nc2cnn(-c3ccccc3)c2)n1)C(N)=O [Example 173, (R)-5-(1-amino-1-oxobutan-2-ylamino)-3-(1-phenyl-1H-pyrazol-4-ylamino)pyrazine-2-carboxamide]
- IC50: 10 to 100 nM

SMILES: CC(C)[C@@H](Nc1cnc(C(N)=O)c(Nc2cnc3ccncc3c2)n1)C(N)=O [Example 194, (R)-3-(1,6-naphthyridin-3-ylamino)-5-(1-amino-3-methyl-1-oxobutan-2-ylamino)pyrazine-2-carboxamide]
- IC50: 1 to 10 nM

SMILES: Cn1ccc2c(Nc3nc(N[C@@H]4CCCC(F)(F)[C@@H]4N)cnc3C(N)=O)cccc21 [Example 392, 5-((1R,2R)-2-amino-3,3-difluorocyclohexylamino)-3-(1-methyl-1H-indol-4-ylamino)pyrazine-2-carboxamide]
- IC50: 1 to 10 nM

SMILES: CC[C@@H](Nc1cnc(C(N)=O)c(Nc2cc(CN3CCOCC3)ns2)n1)C(N)=O [Example 254, (R)-5-(1-amino-1-oxobutan-2-ylamino)-3-(3-(morpholinomethyl)isothiazol-5-ylamino)pyrazine-2-carboxamide]
- IC50: 100 to 1000 nM

SMILES: CC(C)C[C@@H](Nc1cnc(C(N)=O)c(Nc2cncc(C(F)(F)F)c2)n1)C(N)=O [Example 196, (R)-5-(1-amino-4-methyl-1-oxopentan-2-ylamino)-3-(5-(trifluoromethyl)pyridin-3-ylamino)pyrazine-2-carboxamide]
- IC50: 10 to 100 nM

SMILES: CC[C@@H](Nc1cnc(C(N)=O)c(-n2cnc(-c3ccc(N)cc3)c2)n1)C(N)=O [Example 97, (R)-5-(1-amino-1-oxobutan-2-ylamino)-3-(4-(4-aminophenyl)-1H-imidazol-1-yl)pyrazine-2-carboxamide]
- IC50: > 1000 nM

SMILES: COc1cncc(Nc2nc(N[C@H](CC(C)(C)C)C(N)=O)cnc2C(N)=O)c1 [Example 253, (R)-5-(1-amino-4,4-dimethyl-1-oxopentan-2-ylamino)-3-(5-methoxypyridin-3-ylamino)pyrazine-2-carboxamide]
- IC50: 1 to 10 nM

SMILES: CC[C@@H](Nc1cnc(C(N)=O)c(Nc2ccc(N3CCC3)nc2)n1)C(N)=O [Example 319, (R)-5-(1-amino-1-oxobutan-2-ylamino)-3-(6-(azetidin-1-yl)pyridin-3-ylamino)pyrazine-2-carboxamide]
- IC50: 10 to 100 nM

SMILES: CC[C@@H](Nc1cnc(C(N)=O)c(Nc2ccc3cccnc3c2)n1)C(N)=O [Example 376, (R)-5-(1-amino-1-oxobutan-2-ylamino)-3-(quinolin-7-ylamino)pyrazine-2-carboxamide]
- IC50: 1 to 10 nM

SMILES: NC(=O)c1ncc(N[C@@H]2CCNC2)nc1Nc1cnc2ccncc2c1 [Example 117, (R)-3-((1,6-naphthyridin-3-yl)amino)-5-(pyrrolidin-3-ylamino)pyrazine-2-carboxamide]
- IC50: 10 to 100 nM

SMILES: Cc1cc(Nc2nc(N[C@H](C)C(N)=O)cnc2C(N)=O)sn1 [Example 215, (R)-5-(1-amino-1-oxopropan-2-ylamino)-3-(3-methylisothiazol-5-ylamino)pyrazine-2-carboxamide]
- IC50: 10 to 100 nM

SMILES: NC(=O)CNc1cnc(C(N)=O)c(Nc2ccc3ncccc3c2)n1 [Example 382, 5-(2-amino-2-oxoethylamino)-3-(quinolin-6-ylamino)pyrazine-2-carboxamide]
- IC50: 10 to 100 nM

SMILES: NC(=O)c1ncc(N[C@@H]2CCCC[C@@H]2N)nc1NC1Cc2ccccc2C1 [Example 37, 5-((1R,2S)-2-aminocyclohexylamino)-3-(2,3-dihydro-1H-inden-2-ylamino)pyrazine-2-carboxamide]
- IC50: 10 to 100 nM

SMILES: NC(=O)c1ncc(N[C@@H]2CCCC(F)(F)[C@@H]2N)nc1Nc1ccc2c(c1)CCOC2 [Example 453, 5-(((1R,2R)-2-amino-3,3-difluorocyclohexyl)amino)-3-(isochroman-6-ylamino)pyrazine-2-carboxamide]
- IC50: 1 to 10 nM

SMILES: NC(=O)c1ncc(N[C@H]2CCNC2)nc1Nc1ccc2ncccc2c1 [Example 108, (S)-5-(pyrrolidin-3-ylamino)-3-(quinolin-6-ylamino)pyrazine-2-carboxamide]
- IC50: 10 to 100 nM

SMILES: NC(=O)c1ncc(N[C@@H]2CCCC(F)(F)[C@@H]2N)nc1Nc1ccc(-c2ccncc2)cc1 [Example 26, 5-((1R,2R)-2-amino-3,3-difluorocyclohexylamino)-3-(4-(pyridin-4-yl)phenylamino)pyrazine-2-carboxamide]
- IC50: 10 to 100 nM

SMILES: NC(=O)c1ncc(N[C@@H]2CCCC(F)(F)[C@@H]2N)nc1Nc1ccnc2ccccc12 [Example 366, 5-((1R,2R)-2-amino-3,3-difluorocyclohexylamino)-3-(quinolin-4-ylamino)pyrazine-2-carboxamide]
- IC50: 10 to 100 nM

SMILES: CC[C@@H](Nc1cnc(C(N)=O)c(Nc2cc(C(C)(C)C)ns2)n1)C(N)=O [Example 228, (R)-5-(1-amino-1-oxobutan-2-ylamino)-3-(3-tert-butylisothiazol-5-ylamino)pyrazine-2-carboxamide]
- IC50: 10 to 100 nM
